Source: patent US20260207758A1, “NA[…]-BASED CONJUGATE FOR […] INTO B CELL AND T CELL AND USES THEREOF” (priority 2022, published 2026)

Legend:
Type in all cases: cell-based
[1] = test system: T cells (primary CD8+ cytotoxic T cells); experiment: Binding of Cy5.5-labeled targeting peptide, confocal microscopy; details: 100 μM Cy5.5-labeled peptide, 1 hour
Experimental: (§1) A B cell/T cell targeting peptide (BTBP, SEQ ID NO: 17) was labeled with Cy5.5, and B cells (primary CD19+ B cells, PCS-800-018, ATCC) and T cells (primary CD8+ cytotoxic T cells, PCS-800-017, ATCC) were treated with 100 μM of the peptide for 1 hour. Then, the cells were fixed with 4% neutral formalin solution and measured using a confocal scanning microscope (LSM980 with Airyscan2, Carl Zeiss). […] Therefore, it was confirmed that BTBP effectively targeted both the B cells and the T cells.

[2] = test system: B cells (primary CD19+ B cells); experiment: as above; details: 100 μM Cy5.5-labeled peptide, 1 hour
Experimental: as §1

[3] = test system: T cells (primary CD8+ cytotoxic T cells); experiment: Binding of Cy5.5-labeled targeting peptide, flow cytometry; details: Cy5.5-labeled peptide
Experimental: as §1
(§2) In addition, the cells were washed three times with DPBS containing 5% FBS, and cells bound with Cy5.5-labeled BTBP were analyzed using flow cytometry (FIG. 7). As a result, it could be confirmed that the peptide of SEQ ID NO: 17 bound to B cells and T cells.

[4] = test system: B cells (primary CD19+ B cells); experiment: as above; details: Cy5.5-labeled peptide
Experimental: as §1, §2

In the case of HTHGAARVPDHR [BTBP], the “fluorescence intensity in cell membranes” value [1] is reported as “significantly increased”, the “fluorescence intensity in cell membranes” value [2] is reported as “significantly increased” and the “binding to cells by flow cytometry” value [3] is reported as “bound”. The “binding to cells by flow cytometry” value [4] was “bound”.
